According to PubChem BioAssay AID248 (DTP/NCI, 2004):
Where “and” joins values, the source holds several entries; their conditions need not be identical. Equal entries are not always repeated. Inconclusive results and toxic doses are left out.

Tested on: L1210 leukemia ip in BDF1 mice, survival T/C
Test: NCI In Vivo Anticancer Drug Screen. Data for tumor model L1210 Leukemia (intraperitoneal) in B6D2F1 (BDF1) mice
Conditions: endpoint: mean survival time, higher = longer survival
Method in brief: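 Survival endpoint. Drug-treated group vs vehicle group, expressed as T divided by C. Tumor passaged by transplantation.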

[1] = dose: 100.0 mg/kg/injection, schedule: Q04DX002 (ip), vehicle: Klucel (hydroxypropylcellulose) (HPC)
[2] = dose: 200.0 mg/kg/injection, schedule: Q04DX002 (ip), vehicle: Klucel (hydroxypropylcellulose) (HPC)
[3] = dose: 400.0 mg/kg/injection, schedule: Q04DX002 (ip), vehicle: Klucel (hydroxypropylcellulose) (HPC)
[4] = dose: 100.0 mg/kg/injection, schedule: Q01DX001 (ip), vehicle: saline
[5] = dose: 200.0 mg/kg/injection, schedule: Q01DX001 (ip), vehicle: saline
[6] = dose: 400.0 mg/kg/injection, schedule: Q01DX001 (ip), vehicle: saline
[7] = dose: 50.0 mg/kg/injection, schedule: Q01DX009 (ip), vehicle: saline with Tween-80
[8] = dose: 100.0 mg/kg/injection, schedule: Q01DX009 (ip), vehicle: saline with Tween-80
[9] = dose: 100.0 mg/kg/injection, schedule: Q04DX003 (ip), vehicle: saline with Tween-80
[10] = dose: 200.0 mg/kg/injection, schedule: Q04DX003 (ip), vehicle: saline with Tween-80
[11] = dose: 200.0 mg/kg/injection, schedule: Q01DX009 (ip), vehicle: saline with Tween-80
[12] = dose: 400.0 mg/kg/injection, schedule: Q01DX009 (ip), vehicle: saline with Tween-80
[13] = dose: 400.0 mg/kg/injection, schedule: Q04DX003 (ip), vehicle: saline with Tween-80
[14] = dose: 100.0 mg/kg/injection, schedule: Q01DX001 (ip), vehicle: Klucel (hydroxypropylcellulose) (HPC)
[15] = dose: 200.0 mg/kg/injection, schedule: Q01DX001 (ip), vehicle: Klucel (hydroxypropylcellulose) (HPC)
[16] = dose: 100.0 mg/kg/injection, schedule: Q01DX009 (ip), vehicle: Klucel (hydroxypropylcellulose) (HPC)
[17] = dose: 100.0 mg/kg/injection, schedule: Q04DX003 (ip), vehicle: Klucel (hydroxypropylcellulose) (HPC)
[18] = dose: 200.0 mg/kg/injection, schedule: Q01DX009 (ip), vehicle: Klucel (hydroxypropylcellulose) (HPC)
[19] = dose: 200.0 mg/kg/injection, schedule: Q04DX003 (ip), vehicle: Klucel (hydroxypropylcellulose) (HPC)
[20] = dose: 400.0 mg/kg/injection, schedule: Q01DX001 (ip), vehicle: Klucel (hydroxypropylcellulose) (HPC)
[21] = dose: 400.0 mg/kg/injection, schedule: Q01DX009 (ip), vehicle: Klucel (hydroxypropylcellulose) (HPC)

O=C1CC(c2ccccc2)=CN1c1ccc2ccccc2c1
T/C [1]: 100 % of control
T/C [2]: 89 % of control
T/C [3]: 100 % of control

CC1NC(=O)OC1(C)C(C)(C)C (stereo unspecified)
T/C (dose: 5.0 mg/kg/injection, schedule: Q04DX003 (ip), vehicle: saline with Tween-80): 97 % of control
T/C (dose: 10.0 mg/kg/injection, schedule: Q04DX003 (ip), vehicle: saline with Tween-80): 100 % of control
T/C (dose: 20.0 mg/kg/injection, schedule: Q04DX003 (ip), vehicle: saline with Tween-80): 96 % of control

CCOC(=O)C1=NN(c2ccccc2)C(=O)C1N=Nc1ccc(S(=O)(=O)Nc2cc(C)nc(C)n2)cc1 (stereo unspecified)
T/C [4]: 101 % of control
T/C [5]: 102 % of control
T/C [6]: 96 % of control

CCCCCCCC(=N)OCC
T/C [7]: 97 % of control
T/C (dose: 50.0 mg/kg/injection, schedule: Q04DX003 (ip), vehicle: saline with Tween-80): 104 % of control
T/C (dose: 100.0 mg/kg/injection, schedule: Q01DX001 (ip), vehicle: saline with Tween-80): 94 % of control
T/C [8]: 110 % of control
T/C [9]: 93 % of control
T/C (dose: 200.0 mg/kg/injection, schedule: Q01DX001 (ip), vehicle: saline with Tween-80): 104 % of control
T/C [10]: 87 % of control

CCOC(=O)CN(CC(=O)OCC)CC(O)C(Cl)(Cl)Cl (stereo unspecified)
T/C [8]: 106 % of control
T/C [9]: 96 % of control
T/C [11]: 93 % of control
T/C [10]: 101 % of control
T/C [12]: 104 % of control
T/C [13]: 98 % of control

Cc1ccc(C2C(C(=O)c3ccccc3)N2Cc2ccccc2)cc1 (stereo unspecified)
T/C [14]: 98 % of control
T/C [15]: 95 % of control

CCCCCCCCCCCCCCc1sc(N)nc1-c1ccccc1
T/C [4]: 98 % of control
T/C [5]: 98 % of control
T/C [6]: 95 % of control

CC(C)OC(=S)S
T/C (dose: 25.0 mg/kg/injection, schedule: Q01DX009 (ip), vehicle: saline): 100 % of control
T/C (dose: 50.0 mg/kg/injection, schedule: Q01DX009 (ip), vehicle: saline): 94 % of control
T/C (dose: 100.0 mg/kg/injection, schedule: Q01DX009 (ip), vehicle: saline): 93 % of control

Cc1cc(Cl)cc([N+](=O)[O-])c1
T/C [8]: 96 % of control
T/C [11]: 96 % of control
T/C [12]: 95 % of control

CCOc1ccc(C2CCCCCC2OS(C)(=O)=O)cc1 (stereo unspecified)
T/C [14]: 105 % of control
T/C [16]: 95 % of control
T/C [17]: 97 % of control
T/C [15]: 96 % of control
T/C [18]: 98 % of control
T/C [19]: 103 % of control
T/C [20]: 100 % of control
T/C [21]: 93 % of control
T/C (dose: 400.0 mg/kg/injection, schedule: Q04DX003 (ip), vehicle: Klucel (hydroxypropylcellulose) (HPC)): 101 % of control

O=C1C=CC(=O)N1c1cc(Cl)c(Cl)cc1Cl
T/C (dose: 10.0 mg/kg/injection, schedule: Q01DX001 (ip), vehicle: saline): 97 % of control
T/C (dose: 20.0 mg/kg/injection, schedule: Q01DX001 (ip), vehicle: saline): 87 % of control
T/C (dose: 40.0 mg/kg/injection, schedule: Q01DX001 (ip), vehicle: saline): 95 % of control

O=NN(CCCl)C(=O)Nc1cccc([N+](=O)[O-])c1
T/C (dose: 12.0 mg/kg/injection, schedule: Q01DX001 (ip), vehicle: carboxymethylcellulose (CMC)): 152 % of control
T/C (dose: 18.0 mg/kg/injection, schedule: Q01DX001 (ip), vehicle: carboxymethylcellulose (CMC)): 156 % of control
T/C (dose: 26.0 mg/kg/injection, schedule: Q01DX001 (ip), vehicle: carboxymethylcellulose (CMC)): 176 % of control
T/C (dose: 40.0 mg/kg/injection, schedule: Q01DX001 (ip), vehicle: carboxymethylcellulose (CMC)): 174 % of control
T/C (dose: 60.0 mg/kg/injection, schedule: Q01DX001 (ip), vehicle: carboxymethylcellulose (CMC)): 91 % of control

COc1cc(Cl)ccc1NC(=O)N(C)C1CCCCC1
T/C [16]: 104 % of control
T/C [18]: 104 % of control
T/C [21]: 95 % of control

COc1ccc(OC)c(/C=N/NC(=O)C[N+](C)(C)C)c1
T/C [7]: 88 % of control
T/C [8]: 86 % of control

COc1c(NC(=O)CC(C)=O)cccc1[N+](=O)[O-]
T/C [16]: 103 % of control
T/C [1]: 92 % of control
T/C [18]: 101 % of control
T/C [2]: 92 % of control
T/C [21]: 98 % of control
T/C [3]: 101 % of control

CCSCC1OC(n2ncc3c(N)ncnc32)C(O)C1O (stereo unspecified)
T/C [14]: 98 % of control
T/C [15]: 93 % of control
T/C [20]: 97 % of control

COP(=O)(OC)C(OC(=O)C(C)(C)Br)=C(C)C
T/C [9]: 102 % of control
T/C [10]: 106 % of control
T/C [13]: 113 % of control

O=C(O)C1C=CCC2C(=O)OC(=O)C12 (stereo unspecified)
T/C (dose: 75.0 mg/kg/injection, schedule: Q01DX001 (ip), vehicle: saline): 102 % of control
T/C (dose: 150.0 mg/kg/injection, schedule: Q01DX001 (ip), vehicle: saline): 102 % of control
T/C (dose: 300.0 mg/kg/injection, schedule: Q01DX001 (ip), vehicle: saline): 96 % of control

Oc1ccc2ccc(O)cc2c1
T/C [1]: 105 % of control
T/C [2]: 108 % of control
T/C [3]: 102 % of control

NNC(=O)CNc1ccccc1F
T/C (dose: 25.0 mg/kg/injection, schedule: Q04DX002 (ip), vehicle: Klucel (hydroxypropylcellulose) (HPC)): 113 % of control
T/C (dose: 50.0 mg/kg/injection, schedule: Q04DX002 (ip), vehicle: Klucel (hydroxypropylcellulose) (HPC)): 102 % of control
T/C [1]: 102 % of control and 105 % of control

CCCCCCCCCCCCCNCCCCCCCCCCCCC
T/C (dose: 100.0 mg/kg/injection, schedule: Q04DX003 (ip), vehicle: saline): 96 % of control
T/C (dose: 200.0 mg/kg/injection, schedule: Q04DX003 (ip), vehicle: saline): 92 % of control
T/C (dose: 400.0 mg/kg/injection, schedule: Q04DX003 (ip), vehicle: saline): 96 % of control

C(=C\c1ccc2ccccc2n1)/c1ccccc1
T/C [7]: 119 % of control
T/C [4]: 103 % of control
T/C [8]: 94 % of control
T/C [5]: 106 % of control
T/C [11]: 109 % of control
T/C [6]: 109 % of control

COC1OC(CI)C(OC(=O)c2ccccc2)C(OC(=O)c2ccccc2)C1OC(=O)c1ccccc1 (stereo unspecified)
T/C [1]: 101 % of control
T/C [2]: 93 % of control
T/C [3]: 121 % of control

Cc1ccc(/C=C2\CC(C)(C)c3ccccc3C2=O)cc1
T/C [10]: 100 % of control
T/C [13]: 93 % of control

COC1C(CO)OC(n2cnc3c(=O)[nH]c(N)nc32)C1O (stereo unspecified)
T/C (dose: 100.0 mg/kg/injection, schedule: Q01DX001 (ip), vehicle: carboxymethylcellulose (CMC)): 98 % of control
T/C (dose: 200.0 mg/kg/injection, schedule: Q01DX001 (ip), vehicle: carboxymethylcellulose (CMC)): 104 % of control
T/C (dose: 400.0 mg/kg/injection, schedule: Q01DX001 (ip), vehicle: carboxymethylcellulose (CMC)): 114 % of control

O=C(NNC1CCCCC1)c1ccccc1
T/C (dose: 100.0 mg/kg/injection, schedule: Q04DX003 (ip), vehicle: acetone): 107 % of control
T/C (dose: 200.0 mg/kg/injection, schedule: Q04DX003 (ip), vehicle: acetone): 109 % of control
T/C (dose: 400.0 mg/kg/injection, schedule: Q04DX003 (ip), vehicle: acetone): 86 % of control

Cc1c(O)ccc(C(=O)CCl)c1O
T/C (dose: 12.0 mg/kg/injection, schedule: Q01DX009 (ip), vehicle: saline with Tween-80): 100 % of control
T/C (dose: 25.0 mg/kg/injection, schedule: Q01DX009 (ip), vehicle: saline with Tween-80): 102 % of control and 107 % of control
T/C [17]: 106 % of control
T/C [19]: 102 % of control

CC1=CC=CC(=O)C1(C)C(Cl)Cl (stereo unspecified)
T/C [8]: 91 % of control
T/C [9]: 97 % of control
T/C [11]: 104 % of control
T/C [10]: 108 % of control
T/C [12]: 109 % of control
T/C [13]: 94 % of control
